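Exposure lasted 48 hours, with cells grown in 96-well plates and compounds tested at five concentrations. GI50 = concentration required for 50% inhibition of growth.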 Calls of active or inactive are those of the source. Cut-off read from the data, not from the text of the source: active = GI50 up to about 1.1 µM and inactive = higher.
Tests used:
Test in all cases: NCI tumour cell line growth inhibition, 48 h
[1] = tested on: HOP-18
[2] = tested on: DLD-1
[3] = tested on: LXFL 529
[4] = tested on: DMS-273
[5] = tested on: MDA-N
[6] = tested on: BT-549
[7] = tested on: Hs-578T
[8] = tested on: RXF 631
[9] = tested on: DU-145

Row | Compound | GI50 [1] | GI50 [2] | GI50 [3] | GI50 [4] | GI50 [5] | GI50 [6] | GI50 [7] | GI50 [8] | GI50 [9]
1 | Cn1cc(NC(=O)[C@H]2CCC(N)=N2)cc1C(=O)NCCC(=N)N | > 100 µM (inactive) | > 100 µM (inactive) | > 100 µM (inactive) | > 100 µM (inactive) |  |  |  |  | 
2 | COC(=O)C(C/C=C(\C)c1ccc(Cl)cc1)C(C)=O (centres undefined) | 40.3 µM (inactive) | 57.1 µM (inactive) |  | 32.7 µM (inactive) |  |  |  |  | 
3 | N=c1c2ccccc2nc2oc3ccc(Cl)cc3n12 |  |  |  |  | 65.6 µM (inactive) | 36.6 µM (inactive) | 2.28 µM (inactive) |  | 
4 | Cc1cccc(C(C)C)c1NC(=O)/C(Cc1c([N+](=O)[O-])cccc1[N+](=O)[O-])=N/NC(=O)CC#N | > 100 µM (inactive) | > 100 µM (inactive) | > 100 µM (inactive) | > 100 µM (inactive) |  |  |  | > 100 µM (inactive) | 
5 | CCO[C@]12C[C@H](OC)[C@@]3(O)CC(C1[C@H]3O)C13C4C2[C@H](OC)C1[C@](COC)(CN4CC)[C@H](O)C[C@@H]3OC (some centres undefined) |  | > 100 µM (inactive) | > 100 µM (inactive) | > 100 µM (inactive) |  |  |  |  | 
6 | Fc1ccc2c(c1)SC1=Nc3sc4cc(F)ccc4[n+]3CN12 |  |  |  |  |  | 14.8 µM (inactive) | 9.98 µM (inactive) |  | 26.7 µM (inactive)
7 | CC1CN=C(N(C(=O)Nc2ccccc2)C2CCCCC2)S1 (centres undefined) |  |  |  |  | 15.6 µM (inactive) |  | 20.7 µM (inactive) |  | 25.5 µM (inactive)
8 | COc1ccc(C(=O)/C=C/c2ccc(OCC(=O)N3CCN(c4ccccc4)CC3)cc2)cc1 | > 100 µM (inactive) | > 100 µM (inactive) | > 65.8 µM (inactive) | 29.8 µM (inactive) | > 100 µM (inactive) | 24.9 µM (inactive) | > 40.7 µM (inactive) |  | > 100 µM (inactive)
9 | O=C(N/N=C/c1ccccc1)c1c(F)c(F)c(F)c(F)c1F |  |  |  |  | 28.8 µM (inactive) | > 100 µM (inactive) | > 100 µM (inactive) |  | > 100 µM (inactive)
10 | CCOC(=O)c1c(N)sc2c1C(C(=O)OCC)CCC2 (centres undefined) |  |  |  |  | > 100 µM (inactive) | > 100 µM (inactive) | > 100 µM (inactive) |  | 
11 | O=C(O)CN(CC(=O)O)C(C(=O)O)c1ccccc1 (centres undefined) |  |  |  |  | > 100 µM (inactive) | > 100 µM (inactive) | > 100 µM (inactive) |  | > 100 µM (inactive)
12 | C[C@H](O)C(=O)SC[C@H](NC(=O)CC[C@@H](N)C(=O)O)C(=O)NCC(=O)O |  | > 100 µM (inactive) | > 100 µM (inactive) | > 100 µM (inactive) |  |  |  |  | 
13 | c1ccc2c(c1)CCCC/C2=N/OCC1CO1 (centres undefined) | 34.7 µM (inactive) | > 100 µM (inactive) | 36.3 µM (inactive) | 53.1 µM (inactive) |  |  |  |  | 
14 | CCCCCCCSc1nc2c(C(=O)OCC)ncn2c2ccccc12 |  |  | > 100 µM (inactive) | > 100 µM (inactive) |  |  |  |  | 
15 | CC1CC/C(=C\c2ccc(Cl)cc2)C(=O)/C1=C\c1ccc(Cl)cc1 (centres undefined) |  |  |  |  | 51.2 µM (inactive) | 29.9 µM (inactive) | 36.8 µM (inactive) |  | 49.2 µM (inactive)
16 | COC(=O)C1=C(\c2ccccc2)c2ccccc2C(=O)N(C2CCCCC2)/C=C\1 |  |  |  |  | 29.5 µM (inactive) | 23.1 µM (inactive) |  |  | 60 µM (inactive)
17 | Cc1csc(/N=C(/NCCN2CCOCC2)Nc2nc(C)cs2)n1 | > 100 µM (inactive) | > 100 µM (inactive) |  | > 100 µM (inactive) |  |  |  |  | 
18 | CN(C)CCC(O)(c1ccccc1)C(O)(CCN(C)C)c1ccccc1 (centres undefined) |  | > 100 µM (inactive) | > 100 µM (inactive) |  |  |  |  |  | 
19 | FC(F)(F)c1ccc(Cc2nc3cc4ccccc4cc3[nH]2)cc1 |  |  |  |  |  | > 100 µM (inactive) | 95.7 µM (inactive) |  | > 100 µM (inactive)
20 | N#C/C(=C1/Sc2c(nc[nH]c2=O)N1c1ccccc1)c1nc2ccccc2[nH]1 |  | > 100 µM (inactive) | > 100 µM (inactive) | > 100 µM (inactive) |  |  |  |  | 
21 | Cc1ccc(NC(=O)C(Cc2c[nH]c3ccccc23)NC(=O)Oc2ccccc2)cc1C (centres undefined) |  |  |  |  | 55.8 µM (inactive) | 30.6 µM (inactive) | 38.3 µM (inactive) |  | > 100 µM (inactive)
22 | CCOC(=O)c1c(C)n(-c2ccc(C)cc2)c(=O)c2ccccc2c(=O)c2c(=O)ccc(=O)c1=2 |  |  |  |  |  | 23.3 µM (inactive) | 21.3 µM (inactive) |  | 20 µM (inactive)

Row | Compound | GI50 [1] | GI50 [2] | GI50 [3] | GI50 [4] | GI50 [5] | GI50 [6] | GI50 [7] | GI50 [8] | GI50 [9]
23 | O=C1c2ccccc2C(=O)N1/N=C1/SC(=N\c2ccccc2)/C(=N/c2ccccc2)N1c1ccccc1 |  |  |  |  |  | > 48.4 µM (inactive) | > 22.9 µM (inactive) |  | > 100 µM (inactive)
24 | Cc1cc2cc3c(C)cc(=O)oc3c(C)c2o1 [TRIOXSALEN] |  |  |  |  | > 100 µM (inactive) | > 100 µM (inactive) | > 100 µM (inactive) |  | > 100 µM (inactive)
25 | C=C1[C@@H]2CCC(C)(C)[C@H]1CCC(=O)[C@@H]2C(=O)OC |  |  | > 100 µM (inactive) | > 100 µM (inactive) |  |  |  | > 100 µM (inactive) | 
26 | N#CCc1c(F)c(F)c(F)c(F)c1F |  |  |  |  | > 100 µM (inactive) | > 100 µM (inactive) | > 100 µM (inactive) |  | > 100 µM (inactive)
27 | O=C(O)C1=CNC(C(=O)O)=NN1 | > 100 µM (inactive) | > 100 µM (inactive) | > 100 µM (inactive) |  |  |  |  | > 100 µM (inactive) | 
28 | O=C1Cc2cn[nH]c2-c2ccccc2N1 |  |  |  |  | 35.2 µM (inactive) | 22.5 µM (inactive) | 37.9 µM (inactive) |  | 40.7 µM (inactive)
29 | COc1ccc(-c2c3c(nc4nc(SCCc5ccccc5)nc(N)c24)CCCC3)cc1OC |  |  |  |  | > 100 µM (inactive) | > 100 µM (inactive) | 27 µM (inactive) |  | > 100 µM (inactive)
30 | Cc1ccc(S(=O)(=O)N2c3ccccc3[C@H]3CCc4c([nH]c5ccccc45)[C@H]32)cc1 |  |  |  |  | 30 µM (inactive) | > 100 µM (inactive) |  |  | > 100 µM (inactive)
31 | O=C(c1nc2ccc(Cl)cc2nc1O)C(O)c1ccccc1 (centres undefined) |  | > 100 µM (inactive) | 32.7 µM (inactive) | 98.6 µM (inactive) |  |  |  |  | 
32 | C/C(=N\NS(=O)(=O)c1ccc(C)cc1)c1cc2ccccc2n1C |  | > 100 µM (inactive) | > 100 µM (inactive) | > 100 µM (inactive) |  |  |  |  | 
33 | CC(C)=CC1(C)/C(=N\O)C(C)(CC(C)C)C(=O)N1O (centres undefined) |  | > 100 µM (inactive) | > 100 µM (inactive) | > 100 µM (inactive) |  |  |  | > 100 µM (inactive) | 
34 | COC(=O)/C=C\C(C#N)(C#N)/N=C/c1cccs1 |  |  |  |  | 8.22 µM (inactive) | 7.89 µM (inactive) | 24.8 µM (inactive) |  | 10.7 µM (inactive)
35 | COC(=O)c1ccc(CN2CCc3c([nH]c4ccccc34)C2CO)o1 (centres undefined) |  |  |  |  | > 10 µM (inactive) | > 10 µM (inactive) |  |  | > 10 µM (inactive)
36 | COC(=O)C(=O)Cc1nc2ccccc2o1 |  | > 100 µM (inactive) | > 100 µM (inactive) |  |  |  |  | > 100 µM (inactive) | 
37 | COc1ccc(/N=C(\C)c2ccncc2)cc1 |  |  |  |  | > 100 µM (inactive) | 64 µM (inactive) | > 100 µM (inactive) |  | 83 µM (inactive)
38 | C/C=C/C1=CC(=O)C(O)C1O (centres undefined) | 12.4 µM (inactive) | 30.4 µM (inactive) |  | 25.9 µM (inactive) |  |  |  |  | 
39 | CC[C@]12C=CCN3CC[C@@]4(c5cc(Br)c(OC)c([N+](=O)[O-])c5N(C)[C@H]4[C@@](O)(C(=O)OC)[C@@H]1OC(C)=O)[C@@H]32 |  |  |  |  | 37.2 µM (inactive) | > 100 µM (inactive) | 36.1 µM (inactive) |  | 98.2 µM (inactive)
40 | O=C1C[C@H](Sc2ccccc2)C2(OCCO2)[C@@H](Sc2ccccc2)C1 |  |  |  |  | 2.2 µM (inactive) | 1.97 µM (inactive) | 1.77 µM (inactive) |  | 3.19 µM (inactive)
41 | CCN(CCCl)c1cc(CN(C)C)cc(NC(=O)c2ccc(C(=O)Nc3cccc(N(CCCl)NN)c3)cc2)c1 |  |  |  |  | 0.0301 µM (active) |  | 0.0186 µM (active) |  | 0.0234 µM (active)
42 | COc1ccc(C(=CCC(C)C2CCC3[C@@H]4C(OC(C)=O)CC5CC(OC(C)=O)CC[C@]5(C)C4CC(OC(C)=O)[C@]23C)c2ccc(OC)cc2)cc1 (some centres undefined) |  |  |  |  |  |  | > 100 µM (inactive) |  | 
43 | C=CC(C)C1(CCCOCc2ccccc2)C(=S)N2CCC3(CC24CCCC14)OCCO3 (centres undefined) | > 100 µM (inactive) | 54.6 µM (inactive) | 6.1 µM (inactive) | 10.3 µM (inactive) |  |  |  |  | 

From ChEMBL document CHEMBL1201862, “PubChem BioAssay data set” (2004)
